This note sets out measurements from PubChem BioAssay (NCI).

Some test systems named below: BT-549 breast; HS 578T breast; KM12 colon; MOLT-4 leukemia; OVCAR-5 ovarian; SK-OV-3 ovarian; U251 CNS; UACC-62 melanoma; SF-539 CNS; SN12C renal.
What all share (assay): growth of human tumour cells (NCI), 48 h

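How tested: cells in 96-well plates exposed to compound for 48 hours at five concentrations. The concentration for 50% growth inhibition is given as GI50. TGI is the concentration that stops growth completely.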

`C[C@]12CC(c3ccccc3O1)C(C(=O)NC13CC4CC(CC(C4)C1)C3)C(=O)N2` (some centres undefined): the TGI is 61.8 µM in the assay on BT-549 breast; above 100 µM with HS 578T breast; above 100 µM in the assay on KM12 colon; 36.7 µM in the assay with MOLT-4 leukemia; 52.7 µM with OVCAR-5 ovarian; above 100 µM with SK-OV-3 ovarian. For the same molecule, the TGI with U251 CNS and in the assay on UACC-62 melanoma was above 100 µM each time.

With `CN(C)Cc1ccc(C(=O)Nc2ccc3ncnc(Nc4ccc(Oc5cccc(F)c5)c(Cl)c4)c3c2)cc1`, the GI50 with KM12 colon was 1.75 µM; in the assay on MOLT-4 leukemia, 1.55 µM; in the assay with OVCAR-5 ovarian it was 1.64 µM; in the assay on SF-539 CNS, 1.6 µM; with SN12C renal, 1.44 µM; in the assay with UACC-62 melanoma, 1.77 µM. The TGI stood at 3.21 µM with KM12 colon; 3.21 µM with MOLT-4 leukemia; 3.11 µM in the assay on OVCAR-5 ovarian; 3.04 µM in the assay on SF-539 CNS; 2.81 µM in the assay on SN12C renal; 3.23 µM in the assay with UACC-62 melanoma.

Regarding `O=C1c2ccccc2-c2ccc(N=[N+]([O-])c3ccc4c(c3)C(=O)c3ccccc3-4)cc21`, the TGI in the assay with BT-549 breast, in the assay with HS 578T breast, with KM12 colon, in the assay on MOLT-4 leukemia, in the assay with OVCAR-5 ovarian and in the assay with SK-OV-3 ovarian was above 100 µM throughout. Further, the TGI in the assay with SN12C renal, with U251 CNS and in the assay with UACC-62 melanoma was above 100 µM in each case.

In the case of `C=C1C(=O)OC2C1C(OC(=O)/C(C)=C/C)CC1(C)C(=O)CCC(=C)C21` (centres undefined), the TGI with BT-549 breast is 18.7 µM; in the assay with HS 578T breast it was 78 µM; in the assay on KM12 colon, 32 µM; in the assay on MOLT-4 leukemia it was above 26.5 µM; in the assay with OVCAR-5 ovarian, 32 µM; with SF-539 CNS it was 32.1 µM. For the same molecule, the TGI was 51.7 µM in the assay on SK-OV-3 ovarian, 4.09 µM in the assay on SN12C renal, above 54.4 µM with U251 CNS and 23.5 µM in the assay on UACC-62 melanoma.

In the case of `CC(C)CC1c2[nH]c3ccccc3c2C[C@H]2C(=O)NC(CCC(=O)OC(C)(C)C)C(=O)N12` (some centres undefined), the TGI in the assay with BT-549 breast was above 100 µM; in the assay with HS 578T breast, 54.2 µM; in the assay with KM12 colon it was above 100 µM; in the assay with MOLT-4 leukemia it was 72.8 µM; in the assay with OVCAR-5 ovarian, above 100 µM; in the assay with SK-OV-3 ovarian, above 100 µM. For the same molecule, the results for the TGI in the assay on SN12C renal, in the assay on U251 CNS and with UACC-62 melanoma were 70.8 µM, above 100 µM and above 100 µM, respectively.

For the molecule `c1ccc2sc(C3(N4CCCCC4)CCCC3)cc2c1`, the TGI in the assay on BT-549 breast is 27.5 µM; in the assay with HS 578T breast, 33.4 µM; with KM12 colon it was 23.4 µM; with MOLT-4 leukemia, 19.8 µM; with OVCAR-5 ovarian, 24.7 µM; in the assay on SF-539 CNS, 31.7 µM. The values for the TGI with SK-OV-3 ovarian, in the assay on SN12C renal and with UACC-62 melanoma were 31.4 µM, 33.1 µM and 29.4 µM, respectively.

For the molecule `O=C(O)C1CC(c2ccccc2)=NN1c1ccccc1` (centres undefined), the TGI with BT-549 breast was above 100 µM; with HS 578T breast, 81.6 µM; in the assay on KM12 colon, above 100 µM; with MOLT-4 leukemia, above 100 µM; in the assay with OVCAR-5 ovarian, above 100 µM; in the assay on SF-539 CNS it was above 100 µM. Further, the TGI in the assay on SK-OV-3 ovarian, with SN12C renal, in the assay with U251 CNS and in the assay on UACC-62 melanoma was above 100 µM in each case.

In the case of `S=C1N(c2ccc(Cl)cc2)C2=C(N=Nc3ccccc3)C(=Nc3ccccc3S2)N1c1ccccn1`, the TGI in the assay on BT-549 breast worked out at 23.1 µM; in the assay with HS 578T breast, 32.7 µM; with KM12 colon, 23.8 µM; in the assay with MOLT-4 leukemia, 31.7 µM; in the assay on OVCAR-5 ovarian, 35.1 µM; with SF-539 CNS, 30.4 µM. For the same molecule, the results for the TGI in the assay with SK-OV-3 ovarian, in the assay on SN12C renal and with U251 CNS were 31.6 µM, 25 µM and 23.7 µM, respectively.

`Oc1cc2cccc[n+]2c2cccc(Cl)c12`: the GI50 with BT-549 breast is 50.6 µM; in the assay on MOLT-4 leukemia it was 34.9 µM; in the assay on SF-539 CNS it was 71.8 µM; in the assay with SN12C renal it was 17.2 µM; with U251 CNS, 42 µM; in the assay on UACC-62 melanoma it was 32.6 µM. Further, the TGI with SN12C renal came out at 45.4 µM.

As to `O=S(=O)(c1ccc(I)cc1)N(c1ccccc1)S(=O)(=O)C(F)(F)C(F)(F)C(F)(F)C(F)(F)F`, the TGI is above 100 µM in the assay with BT-549 breast; 99.5 µM with HS 578T breast; above 100 µM in the assay on KM12 colon; above 100 µM in the assay on MOLT-4 leukemia; 95.4 µM with OVCAR-5 ovarian; above 100 µM with SF-539 CNS. The TGI was 74 µM in the assay with SK-OV-3 ovarian, above 100 µM with SN12C renal, above 100 µM in the assay with U251 CNS and above 100 µM with UACC-62 melanoma.

As for `COc1cc(-c2coc3c(OC)c(OC4OC(CO)C(O)C(O)C4O)c(OC)cc3c2=O)cc(OC)c1C` (centres undefined), the TGI in the assay with BT-549 breast was 16.1 µM; in the assay with HS 578T breast it was 15.4 µM; in the assay on KM12 colon, 28.3 µM; in the assay with MOLT-4 leukemia, above 36 µM; in the assay with OVCAR-5 ovarian, 32.7 µM; in the assay with SF-539 CNS it was above 29 µM. Besides, the TGI is 23.4 µM with SK-OV-3 ovarian, 51.8 µM in the assay with SN12C renal, above 34.6 µM in the assay on U251 CNS and 17.2 µM with UACC-62 melanoma.

For `S=C(Nc1ccc(Cl)cc1)Nc1ccc(Cl)cc1` (tested in a mixture with another compound), the GI50 in the assay with HS 578T breast is 2.37 µM; in the assay with KM12 colon it was 2.76 µM; in the assay with OVCAR-5 ovarian, 2.38 µM; with SF-539 CNS, 2 µM; in the assay on SN12C renal, 2.49 µM; in the assay with U251 CNS it was 1.64 µM. In the assay on UACC-62 melanoma, the GI50 is 1.75 µM. Further, the TGI in the assay on HS 578T breast is above 100 µM; in the assay on KM12 colon, 9.1 µM; in the assay with OVCAR-5 ovarian, 9.71 µM; in the assay with SF-539 CNS, 4.84 µM; in the assay on SN12C renal, 7.32 µM; in the assay with U251 CNS it was 3.52 µM. The same molecule registered a TGI in the assay with UACC-62 melanoma of 4.28 µM.

On to `CC1(C)COC(/C=C/C2=NC(C)(C)CO2)=N1`, for which the TGI with BT-549 breast is 49.8 µM; in the assay with HS 578T breast, 23.1 µM; in the assay on KM12 colon, 37.1 µM; with MOLT-4 leukemia it was 36.1 µM; in the assay on OVCAR-5 ovarian, 54.4 µM; in the assay on SF-539 CNS it was 51.7 µM. The TGI with SK-OV-3 ovarian is above 100 µM; in the assay with SN12C renal, 9.89 µM; with U251 CNS, 64.3 µM; with UACC-62 melanoma it was 31.4 µM.

Turning to `O=C(/C=C/c1ccc(O)cc1)NCCc1ccc(O)cc1`, the TGI in the assay with BT-549 breast is above 12.5 µM; with HS 578T breast, above 12.5 µM; in the assay on KM12 colon, above 12.5 µM; in the assay on OVCAR-5 ovarian, above 12.5 µM; in the assay on SF-539 CNS it was 11.1 µM; with SN12C renal, above 12.5 µM. Besides, the TGI with U251 CNS and with UACC-62 melanoma was above 12.5 µM throughout.

Turning to `C[N+]1(C)CCC(C#N)(c2ccccc2)CC1`, the TGI in the assay on HS 578T breast, in the assay on KM12 colon, in the assay with MOLT-4 leukemia, in the assay with OVCAR-5 ovarian, with SK-OV-3 ovarian and with U251 CNS was above 100 µM throughout.

As to `CC(O)C(O)C(N)CC=O` (centres undefined), the TGI with KM12 colon, with MOLT-4 leukemia, in the assay with OVCAR-5 ovarian, in the assay with SF-539 CNS, in the assay on SK-OV-3 ovarian and in the assay on SN12C renal was above 500 µM throughout. Also, the TGI with U251 CNS and in the assay with UACC-62 melanoma was above 500 µM in each case.

`CCOC(=O)n1cncc1CC(NC(=O)Cc1c(C(=O)C=C(C)C)[nH]c2ccccc12)C(=O)OC` (centres undefined): the TGI in the assay on BT-549 breast was 37.3 µM; with HS 578T breast it was 65.9 µM; in the assay with KM12 colon, 39.1 µM; with MOLT-4 leukemia, 47.3 µM; in the assay with OVCAR-5 ovarian, 35 µM; with SF-539 CNS, 46.2 µM. In addition, the TGI stood at 35.3 µM in the assay with SK-OV-3 ovarian, 39.5 µM in the assay on SN12C renal, 44.9 µM in the assay with U251 CNS and 36.3 µM in the assay with UACC-62 melanoma.

For the molecule `O=C1/C(=C\c2ccc(-c3ccc(Cl)cc3Cl)o2)SC2N=C(COc3ccc(Cl)cc3)NN12` (centres undefined), the TGI in the assay on BT-549 breast was above 100 µM; with HS 578T breast, 87.8 µM; in the assay on KM12 colon it was above 100 µM; in the assay on MOLT-4 leukemia it was above 100 µM; with OVCAR-5 ovarian it was above 100 µM; in the assay with SF-539 CNS, above 100 µM. The TGI with SK-OV-3 ovarian was above 100 µM; in the assay on SN12C renal it was above 100 µM; in the assay with U251 CNS it was 98.2 µM; with UACC-62 melanoma, above 100 µM.

Take `COC(=O)C1=CC[C@@H]2C(C(=O)O)=CO[C@@H](OC3OC(CO)C(O)C(O)C3O)[C@H]12` (some centres undefined): the TGI with KM12 colon, with MOLT-4 leukemia, in the assay on OVCAR-5 ovarian, in the assay on SF-539 CNS, in the assay on SK-OV-3 ovarian and with SN12C renal was above 300 µM throughout. Also, the TGI in the assay on U251 CNS and in the assay on UACC-62 melanoma was above 300 µM in each case.

As to `CC(C)C(N=Cc1ccccc1O)C(=O)O` (centres undefined), the TGI in the assay on BT-549 breast, in the assay with HS 578T breast, in the assay on KM12 colon, with MOLT-4 leukemia, in the assay with OVCAR-5 ovarian and in the assay on SF-539 CNS was above 100 µM each time. For the same molecule, the TGI in the assay on SK-OV-3 ovarian, in the assay with SN12C renal, with U251 CNS and in the assay on UACC-62 melanoma was above 100 µM in each case.

Regarding `O=S(O)c1cc(Cl)cc(Cl)c1O`, the TGI in the assay on KM12 colon, in the assay with MOLT-4 leukemia, in the assay with OVCAR-5 ovarian, in the assay with SF-539 CNS, in the assay with SK-OV-3 ovarian and with SN12C renal was above 100 µM each time. Moreover, the TGI in the assay on U251 CNS and in the assay on UACC-62 melanoma was above 100 µM in each case.

On to `N#C/C=C1\C=CC(O)C(O)C1OC1OC(CO)C(O)C(O)C1O` (centres undefined), for which the TGI in the assay with BT-549 breast, in the assay on HS 578T breast, in the assay with KM12 colon, in the assay with MOLT-4 leukemia, with OVCAR-5 ovarian and with SF-539 CNS was above 100 µM in each case. The TGI in the assay on SK-OV-3 ovarian, with SN12C renal, with U251 CNS and with UACC-62 melanoma was above 100 µM each time.

In the case of `CC(=O)OCC1OC(O[C@@H]2c3c(O)c4c(c(O)c3C3=C(NN(c5ccc([N+](=O)[O-])cc5[N+](=O)[O-])[Se]3=O)[C@@]2(C)O)C(=O)c2ccccc2C4=O)C(OC(C)=O)C(OC(C)=O)C1OC(C)=O` (some centres undefined), the TGI in the assay on BT-549 breast was found to be 4.23 µM; with HS 578T breast, 0.927 µM; with KM12 colon it was 1.58 µM; in the assay with MOLT-4 leukemia, 0.23 µM; in the assay with OVCAR-5 ovarian it was 2.07 µM; with SK-OV-3 ovarian, 1.52 µM. The results for the TGI with SN12C renal, in the assay with U251 CNS and in the assay on UACC-62 melanoma were 0.552 µM, 0.458 µM and 0.936 µM, respectively.
